Where a name gives a salt, the structure may show the parent alone.

The source of these data is patent US12312605B2, “Riboflavin derivative-containing medium” (AJINOMOTO CO., INC., priority 2017, dated 2025).

What all share (type): cell-based
Test [1] has as its system iPS cells (201B7 strain). Description: Effective concentration of RFV derivatives: iPS cell growth in medium refrigerated for 2 weeks. More on the design: key to cell growth: X; not grown; ◯; cell grown. The following applies: for storage stability of medium compared with RFV: any medium (Essential 8 or TeSR2 supplement), refrigerated 2 weeks. The procedure:
(§1) 201B7 strain purchased from iPS Academia Japan, Inc. was used as the iPS cell. Cell culture was performed using a culture vessel coated with Matrigel (Nippon Becton, Dickinson and Company: 354277) or iMatrix-511 (Nippi. Inc.: 892002) as an extracellular matrix under conditions of 5% CO2/37° C.
(§2) Modified DMEM/F-12 was mixed with each supplement of Essential 8 (Thermo Fisher SCIENTIFIC: A1517001), TeSR-E8 (STEMCELL Technologies: #05940), TeSR2 (STEMCELL Technologies: #05860) to prepare a complete medium. The medium was stored in a refrigerator with a glass door under non-light-shielding (fluorescent light irradiation time: 10 hr/day) and then used for culture, based on which the storage stability of the medium was studied.
The effectiveness of FAD and RTB, which are RFV derivatives, was studied, and the effective concentration ranges of FMN, FAD and RTB were studied. A complete medium was prepared using Modified DMEM/F-12 (FMN−) as the basal medium and Essential 8 or TeSR2 supplement as the supplement. RFV, FMN (Riboflavin 5′-Monophosphate Sodium Salt), FAD (Flavin Adenine Dinucleotide Disodium Salt Hydrate (Tokyo Chemical m Industry Co., Ltd., F0014, hereinafter the same)) and RTB (Riboflavin Tetrabutyrate, Wako Pure Chemical Industries, Ltd., 185-00861) were each added to the complete medium at a final concentration of 0.47 to 15.2 μM (concentration converted to free form anhydrate in the case of salt and/or hydrate). A medium supplemented with Fe^2+ and Zn^2+ at 100 mol % was also prepared.
Each medium was refrigerated under non-light-shielding for 2 weeks and then the proliferation ability of iPS cells was studied. A 12-well plate coated with Matrigel was prepared, 10,000 cells per well were seeded in a single cell state. On the day when the cells were seeded, the evaluation was performed using the medium prepared above. The culture period was set to 7 days, and the cell confluency was measured using IncuCyte Zoom on day 7 from the start of the culture. At the time of seeding, a medium supplemented with Y-27632 at a final concentration of 10 μM was used. In the evaluation from the following day, the cells were cultured in a medium not supplemented with Y-27632.
To study the effective concentration range of FAD, which is an RFV derivative, the unperformed part of Example 5 was evaluated. A complete medium was prepared using Modified DMEM/F-12 (FMN−) as the basal medium and TeSR2 supplement as the supplement. FAD (Flavin Adenine Dinucleotide Disodium Salt Hydrate) was added to the complete medium at a final concentration of 0.47 to 15.2 μM. A medium supplemented with Fe^2+ and Zn^2+ at 100 mol % was prepared.

The test system of test [2] is iPS cells (201B7 strain). Description: Influence of Fe, Zn, RFV on storage stability of medium (iPS cell confluency). Conditions: Essential 8 supplement; for contribution to lowering of storage stability of the medium: 100 vs 25 mol % in Modified DMEM/F-12 with FMN 20 mol %, refrigerated 2 weeks. The procedure:
as §1, §2
To what extent Fe^2+, Zn^2+ and RFV contribute to the storage stability of the medium was studied. Complete media were respectively prepared by adding each component to Modified DMEM/F-12 (FMN−) (Table 5). Each medium was refrigerated under non-light-shielding for 0 and 2 weeks and then the proliferation ability of iPS cells was studied.
A 12-well plate coated with Matrigel was prepared, 10,000 cells per well were seeded in a single cell state. On the day when the cells were seeded, the evaluation was performed using the medium prepared above. The culture period was set to 7 days, and the cell confluency was measured using IncuCyte Zoom on day 7 from the start of the culture. At the time of seeding, a medium supplemented with Y-27632 at a final concentration of 10 μM was used. In the evaluation from the following day, the cells were cultured in a medium not supplemented with Y-27632.

Test [3] relates to iPS cells (201B7 strain). Nature of the test: Effectiveness of RFV during iPS cell culture (cell confluency, day 7). Conditions: Modified DMEM/F-12 (FMN-) + Essential 8 supplement, RFV 0.00-0.176 mg/L, Fe2+ and Zn2+ 25 or 100 mol %, Matrigel.
Method: 201B7 strain purchased from iPS Academia Japan, Inc. was used as the iPS cell. Cell culture was performed using a culture vessel coated with Matrigel (Nippon Becton, Dickinson and Company: 354277) or iMatrix-511 (Nippi. Inc.: 892002) as an extracellular matrix under conditions of 5% CO2/37° C. Whether RFV is an essential component during iPS cell culture was studied. A complete medium was prepared by mixing the basal medium (Solution A: Modified DMEM/F-12 (FMN−)) and Essential 8 supplement (Solution B). Media were prepared by adding RFV to the complete medium to final concentrations of 0.00, 0.0176, 0.044, 0.088, 0.176 mg/L (No. 1 to No. 5 in Table 3). Along therewith, to grasp the influence of the reduced mineral components, media supplemented with Fe^2+ and Zn^2+ at 100 mol % were also prepared (No. 6 to No. 10 in Table 3). After preparing the medium, a 12-well plate coated with Matrigel was prepared, and 10,000 cells per well were seeded in a single cell state. On the day when the cells were seeded, the evaluation was performed using the medium prepared above. The culture period was set to 7 days, and the cell confluency was measured as an index of cell proliferation using IncuCyte Zoom (Essen Bioscience) on day 7 from the start of the culture. […]
Setting [4] is: 0.47 μM (80 mol % vs DMEM/F-12), Fe2+ and Zn2+ 25 mol %, Essential 8 supplement, medium refrigerated 2 weeks.
Setting [5] is: 0.47 μM (80 mol % vs DMEM/F-12), Fe2+ and Zn2+ 25 mol %, TeSR2 supplement, medium refrigerated 2 weeks.
The mark [6] stands for this setting: 0.47 μM (80 mol % vs DMEM/F-12), Fe2+ and Zn2+ 100 mol %, Essential 8 supplement, medium refrigerated 2 weeks.
Setting [7] is: 0.47 μM (80 mol % vs DMEM/F-12), Fe2+ and Zn2+ 100 mol %, TeSR2 supplement, medium refrigerated 2 weeks, Example 5.
[8] abbreviates: 1.52 μM (259 mol % vs DMEM/F-12), Fe2+ and Zn2+ 25 mol %, Essential 8 supplement, medium refrigerated 2 weeks.
[9] abbreviates: 1.52 μM (259 mol % vs DMEM/F-12), Fe2+ and Zn2+ 100 mol %, Essential 8 supplement, medium refrigerated 2 weeks.
[10] abbreviates: 2.57 μM (437 mol % vs DMEM/F-12), Fe2+ and Zn2+ 25 mol %, TeSR2 supplement, medium refrigerated 2 weeks.
Setting [11] is: 2.57 μM (437 mol % vs DMEM/F-12), Fe2+ and Zn2+ 100 mol %, TeSR2 supplement, medium refrigerated 2 weeks, Example 5.
The mark [12] stands for this setting: 15.2 μM (2587 mol % vs DMEM/F-12), Fe2+ and Zn2+ 25 mol %, TeSR2 supplement, medium refrigerated 2 weeks.
The mark [13] stands for this setting: 15.2 μM (2587 mol % vs DMEM/F-12), Fe2+ and Zn2+ 100 mol %, TeSR2 supplement, medium refrigerated 2 weeks, Example 5.

Regarding `Cc1cc2nc3c(=O)[nH]c(=O)nc-3n(C[C@H](O)[C@H](O)[C@H](O)COP(=O)(O)O)c2cc1C` [FMN, Riboflavin 5′-Monophosphate Sodium Salt], the cell growth result in test [1] (setting [4]) is “◯”; in test [1] (setting [5]), “◯”; in test [1] (setting [6]), “◯”; in test [1] (setting [7]) it was “◯”; in test [1] (setting [8]) it was “X”; in test [1] (setting [9]), “X”. For the same compound, the cell growth result is “◯” in test [1] (setting [10]), “X” in test [1] (setting [11]), “X” in test [1] (setting [12]) and “X” in test [1] (setting [13]). For the same compound, the “storage stability of medium compared with RFV” value in test [1] is “higher storage stability than that of RFV”.

For the compound `Cc1cc2nc3c(=O)[nH]c(=O)nc-3n(C[C@H](O)[C@H](O)[C@H](O)COP(=O)(O)OP(=O)(O)OC[C@H]3O[C@@H](n4cnc5c(N)ncnc54)[C@H](O)[C@@H]3O)c2cc1C` [FAD, Flavin Adenine Dinucleotide Disodium Salt Hydrate], the cell growth entry in test [1] (setting [4]) is “◯”; in test [1] (setting [5]), “◯”; in test [1] (setting [6]) it was “◯”; in test [1] (setting [7]) it was “◯”; in test [1] (0.47 μM (80 mol % vs DMEM/F-12), Fe2+ and Zn2+ 100 mol %, TeSR2 supplement, medium refrigerated 2 weeks, Example 6), “◯”; in test [1] (setting [8]), “◯”. In addition, the cell growth result in test [1] (setting [9]) is given as “X”; in test [1] (setting [10]) it was “◯”; in test [1] (2.57 μM (437 mol % vs DMEM/F-12), Fe2+ and Zn2+ 100 mol %, TeSR2 supplement, medium refrigerated 2 weeks, Example 6), “◯”; in test [1] (setting [12]), “◯”; in test [1] (setting [13]), “X”; in test [1] (15.2 μM (2587 mol % vs DMEM/F-12), Fe2+ and Zn2+ 100 mol %, TeSR2 supplement, medium refrigerated 2 weeks, Example 6) it was “X”. The “concentration at which culturing was possible (comparison)” value in test [1] (Essential 8 or TeSR2 supplement, medium refrigerated 2 weeks) is “higher for FAD than FMN and RTB”. For the same compound, in test [1], the “storage stability of medium compared with RFV” value was “higher storage stability than that of RFV”.

In the case of `O.O.O.O.O.O.O.O=S(=O)([O-])[O-].[Fe+2]` [Fe^2+, iron (II) sulfate heptahydrate], the “contribution to lowering of storage stability of the medium” value in test [2] is listed as “do not contribute to lowering of storage stability”.

With `CCCC(=O)OC[C@@H](OC(=O)CCC)[C@@H](OC(=O)CCC)[C@H](Cn1c2nc(=O)[nH]c(=O)c-2nc2cc(C)c(C)cc21)OC(=O)CCC` [RTB, Riboflavin Tetrabutyrate], the cell growth entry in test [1] (setting [4]) is “◯”; in test [1] (setting [5]) it was “◯”; in test [1] (setting [6]) it was “◯”; in test [1] (setting [7]) it was “◯”; in test [1] (setting [8]), “X”; in test [1] (setting [9]), “X”. The cell growth entry in test [1] (setting [10]), in test [1] (setting [11]), in test [1] (setting [12]) and in test [1] (setting [13]) was “X” each time. The “storage stability of medium compared with RFV” value in test [1] was “higher storage stability than that of RFV”.

Take `Cc1cc2nc3c(=O)[nH]c(=O)nc-3n(C[C@H](O)[C@H](O)[C@H](O)CO)c2cc1C` [RFV, riboflavin]: the cell growth result in test [1] (setting [4]) is listed as “X”; in test [1] (setting [5]), “◯”; in test [1] (setting [6]) it was “X”; in test [1] (setting [7]) it was “◯”; in test [1] (setting [8]) it was “X”; in test [1] (setting [9]), “X”. In addition, the cell growth result in test [1] (setting [10]), in test [1] (setting [11]), in test [1] (setting [12]) and in test [1] (setting [13]) was “X” throughout. In addition, the “cell growth after storage of medium” value in test [2] (medium refrigerated non-light-shielded 2 weeks, Matrigel, day 7) is reported as “cells could not grow after storage for 2 weeks”. The “effectiveness of RFV during iPS cell culture (cell confluency)” value in test [3] is “essential for cell culture”.

On to `O.O.O.O.O.O.O.O=S(=O)([O-])[O-].[Zn+2]` [Zn^2+, zinc sulfate heptahydrate], for which the “contribution to lowering of storage stability of the medium” value in test [2] was “do not contribute to lowering of storage stability”.
